Key:
[1] = tested on: A2780 cells; experiment: Test for induction of differentiation in A2780 cells (ALP activity, ALPmin); type: cell-based, human; settings: for minimal effective concentration: Homo sapiens, 72 h, A2780 cells, 3 days incubation, minimum concentration of the drug inducing increase of ALP activity
How it was run: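 A2780 cells seeded at 15,000/well, test compound added in serial dilution the next day. ALP reaction stopped with 3N NaOH and absorbance read at 405 nm; ALPmin is the lowest concentration raising ALP activity.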

[2] = tested on: Murine myeloid leukemia cells WEHI-3; experiment: Antitumor test, life prolongation in mice inoculated with WEHI-3 cells (T/C); type: in vivo, Balb/C mouse; settings: oral once a day Day 1 to 4 and Day 7 to 11, ratio of survival days to control
Text: Murine myeloid leukemia cells WEHI-3 (1 to 3×10^6 cells) were intraperitoneally inoculated to a Balb/C mouse, and administration of a test compound was initiated on the next day. The day was Day 1 and subsequently the drug was orally administered once a day in Day 1 to 4 and in Day 7 to 11. Survival days after inoculation were observed, which were used to calculate the ratio of the survival days for the test coompound group to those for the control group (T/C, %). The ratio was used to evaluate a life prolongation effect.

melting point | Structure (SMILES) | minimal effective concentration [1] | T/C ([2]; Dose 130 μmol/kg) | differentiation-inducing activity [1] | T/C ([2]; Dose 32 μmol/kg)
 | Nc1ccccc1NC(=O)c1ccc(NC(=O)COCc2cccnc2)cc1 [Example 130, N-(2-aminophenyl)-4-[(pyridin-3-yl)methoxyacetylamino]benzamide] | 0.03 µM | 189% |  | 
146 to 148 °C | Nc1ccccc1NC(=O)c1ccc(CNC(=O)OCCc2ccccn2)cc1 [Example 52, N-(2-aminophenyl)-4-[N-[2-(pyridin-2-yl)ethoxycarbonyl]aminomethyl]benzamide] | 1 µM |  |  | 
162 to 165 °C (dec.) | Cn1cncc1COC(=O)NCc1ccc(C(=O)Nc2ccccc2N)cc1 [Example 74, N-(2-aminophenyl)-4-[N-(1-methylimidazol-5-yl)methoxycarbonylaminomethyl]benzamide] | 10 µM |  |  | 
160 to 164 °C (dec.) | Nc1ccccc1NC(=O)c1ccc(-n2cc(COCc3cccnc3)oc2=O)cc1 [Example 140, N-(2-aminophenyl)-4-[5-(pyridin-3-yl)methyloxymethyl-1,3-oxazolin-2-on-3-yl]benzamide] | 0.3 µM |  |  | 
168 to 170 °C | Nc1ccccc1NC(=O)c1ccc(CCC(=O)NCc2cccnc2)cc1 [Example 97, N-(2-aminophenyl)-4-[2-[N-(3-picolyl)aminocarbonyl]ethyl]benzamide] | 0.1 µM |  |  | 
201 to 204 °C (dec.) | Nc1ccccc1NC(=O)c1ccc(CNC(=O)c2ccccc2Cl)cc1 [Example 2, N-(2-aminophenyl)-4-[N-(2-chlorobenzoyl)aminomethyl]benzamide] | 3 µM |  |  | 
154 to 155 °C | Nc1ccccc1NC(=O)c1ccc(CNC(=O)COc2cccnc2)cc1 [Example 46, N-(2-aminophenyl)-4-[N-(pyridin-3-yl)oxyacetylaminomethyl]benzamide] | 0.1 µM |  | high | 141%
141 to 144 °C | COc1ccc(N)c(NC(=O)c2ccc(CNC(=O)COc3cccnc3)cc2)c1 [Example 33, N-(2-amino-5-methoxyphenyl)-4-[N-(pyridin-3-yl)oxyacetylaminomethyl]benzamide] | 0.3 µM |  |  | 
178 to 181 °C (dec.) | Cc1cc(C(=O)Nc2ccccc2N)ccc1NC(=O)COCc1cccnc1 [Example 123, N-(2-aminophenyl)-4-[N-(pyridin-3-yl)methoxyacetylamino]-3-methylbenzamide] | 3 µM |  |  | 
218 to 220 °C (dec.) | Nc1ccccc1NC(=O)c1ccc(NC(=O)CNC(=O)c2cccnc2)cc1 [Example 127, N-(2-aminophenyl)-4-[N-(N-nicotinoylamino)acetylamino]benzamide] | 0.3 µM |  |  | 
172 to 174 °C | Nc1ccccc1NC(=O)c1ccc(-n2cc(COCc3ccccn3)oc2=O)cc1 [Example 142, N-(2-aminophenyl)-4-[5-(pyridin-2-yl)methyloxymethyl-1,3-oxazolin-2-on-3-yl]benzamide] | 0.1 µM |  |  | 
196 °C (dec.) | Nc1ccccc1NC(=O)c1ccc(NC(=O)CC(=O)Nc2cccnc2)cc1 [Example 122, N-(2-aminophenyl)-4-[3-[N-(pyridin-3-yl)amino]-1,3-dioxopropylamino]benzamide] | 0.03 µM |  |  | 
149 to 153 °C (dec.) | Nc1cccc(COC(=O)NCc2ccc(C(=O)Nc3ccccc3N)cc2)c1 [Example 73, N-(2-aminophenyl)-4-[N-(3-aminophenyl)methoxycarbonylaminomethyl]benzamide] | 3 µM |  |  | 
210 to 212 °C (dec.) | Cl.Nc1ccccc1NC(=O)c1ccc(CNC(=O)c2ccccc2[N+](=O)[O-])cc1 [Example 3, N-(2-aminophenyl)-4-[N-(2-nitrobenzoyl)aminomethyl]benzamide hydrochloride] | 3 µM |  |  | 
144 to 148 °C | CC(OCc1cccnc1)C(=O)Nc1ccc(C(=O)Nc2ccccc2N)cc1 (stereo not drawn) [Example 131, N-(2-aminophenyl)-4-[N-[2-(pyridin-3-yl)methoxypropionyl]amino]benzamide] | 0.3 µM |  |  | 
149 to 151 °C | COc1ccc(C(=O)NCc2ccc(C(=O)Nc3ccccc3N)cc2)cc1 [Example 6, N-(2-aminophenyl)-4-[N-(4-methoxybenzoyl)aminomethyl]benzamide] | 1 µM |  |  | 
138 °C | Cc1cccc(COC(=O)NCc2ccc(C(=O)Nc3ccccc3N)cc2)n1 [Example 53, N-(2-aminophenyl)-4-[N-(6-methylpyridin-2-yl)methoxycarbonylaminomethyl]benzamide] | 3 µM |  |  | 
145 to 147 °C (dec.) | Nc1ccccc1NC(=O)c1ccc(CNC(=O)CCC(=O)c2cccnc2)cc1 [Example 31, N-(2-aminophenyl)-4-[N-[4-(pyridin-3-yl)-1,4-dioxobutyl]aminomethyl]benzamide] | 10 µM |  |  | 
210 °C (dec.) | Nc1ccccc1NC(=O)c1ccc(CNC(=O)c2cc3ccncc3o2)cc1 [Example 39, N-(2-aminophenyl)-4-[N-(furo[2,3-c]pyridin-2-yl)carbonylaminomethyl]benzamide] | 0.1 µM |  |  | 
171 to 173 °C | Nc1ccccc1NC(=O)c1ccc(NC(=O)COCc2ccccn2)cc1 [Example 126, N-(2-aminophenyl)-4-[N-(pyridin-2-yl)methoxyacetylamino]benzamide] | 3 µM |  |  | 
164 to 165 °C | Cc1ccc(COC(=O)NCc2ccc(C(=O)Nc3ccccc3N)cc2)cn1 [Example 57, N-(2-aminophenyl)-4-[N-(6-methylpyridin-3-yl)methoxycarbonylaminomethyl]benzamide] | 3 µM |  |  | 
 | Nc1ccccc1NC(=O)c1ccc(CNC(=O)OCc2cccnc2)cc1 [Example 48, N-(2-aminophenyl)-4-[N-(pyridin-3-yl)methoxycarbonylaminomethyl]benzamide] | 0.1 µM | 190% | high | 
222 to 226 °C | Nc1ccccc1NC(=O)c1ccc(NC(=O)Cc2ccc([N+](=O)[O-])cc2)cc1 [Example 104, N-(2-aminophenyl)-4-[(4-nitrophenylacetyl)amino]benzamide] | 1 µM |  |  | 
206 to 209 °C | Cl.Nc1ccccc1NC(=O)c1ccc(CNC(=O)c2ccccc2)cc1 [Example 1, N-(2-aminophenyl)-4-(N-benzoylaminomethyl)benzamide hydrochloride] | 1 µM |  |  | 
204 to 206 °C | Nc1ccccc1NC(=O)c1ccc(CNC(=O)CC(=O)c2cccnc2)cc1 [Example 34, N-(2-aminophenyl)-4-[N-[3-(pyridin-3-yl)-1,3-dioxopropyl]aminomethyl]benzamide] | 0.1 µM |  |  | 
130 to 135 °C | CN1CCCC(COC(=O)NCc2ccc(C(=O)Nc3ccccc3N)cc2)C1 (stereo not drawn) [Example 65, N-(2-aminophenyl)-4-[N-(1-methylpiperidin-3-yl)methoxycarbonylaminomethyl]benzamide] | 3 µM |  |  | 

Structure (SMILES) | melting point | minimal effective concentration [1] | T/C ([2]; Dose 130 μmol/kg) | differentiation-inducing activity [1] | T/C ([2]; Dose 32 μmol/kg)
Nc1ccccc1NC(=O)c1ccc(CNC(=O)Oc2ccccc2)cc1 [Example 68, N-(2-aminophenyl)-4-[N-(phenoxycarbonyl)aminomethyl]benzamide] | 174 to 175 °C | 3 µM |  |  | 

— US7317028B2, “Cell differentiation inducer” (Schering Aktiengesellschaft, priority 1996, dated 2008)
